# Patent publication US9302988B2, “Fluoromethyl-substituted pyrrole carboxamides” (GRÜNENTHAL GMBH, priority 2012, dated 2016)
# Biological target: T1, Human CaV2.2 channels (Homo sapiens, UniProt Q00975)
# T1 construct: expressed in transfected cells
# Test: Fluorescent assay for CaV2.2 channels using potassium depolarization to induce channel opening (FLIPR, Fluo-4)
# Format: cell-based
# Settings: 3 μM test compound, 30 mM KCl, HEK293 cells stably expressing human CaV2.2; read-out: %-Inhib (CaV2.2) @3 μM @30 mM KCl
# From the text: In the process, the Ca^2+ influx is quantified in the FLIPR assay with the aid of a Ca^2+-sensitive dye (type Fluo-4, Molecular Probes Europe BV, Leiden, the Netherlands) in a fluorescent imaging plate reader (FLIPR 3, Molecular Devices, Sunnyvale, USA), as described hereinafter.
# 2.1 Fluorescent Assay for CaV2.2 Channels Using Potassium Depolarization to Induce Channel Opening
# Human CaV2.2 channels were stably expressed in HEK293 cells together with alpha2-delta and beta subunits of voltage gated calcium channels. In addition, an inwardly rectifying potassium channel (Kir2.3) was stably expressed in these cells to augment control of the cell membrane potential by the concentration of extracellular potassium ions. Raise of the extracellular potassium concentration leads to depolarization of the membrane potential and thus regulates the voltage dependent state of CaV2.2 channels. For preparation, cells were seeded in black poly-D-lysine coated 96-well plates (Becton Dickinson, Biocoat 4640) in 100 μl medium [500 ml DMEM/F-12 plus Glutamax (Invitrogen 31331-093) plus 5.5 ml MEM NEAA 100× (Invitrogen 11140-035) plus 50 ml FBS decomplemented (Invitrogen 10270-106) plus 4.4 ml Geneticin (Invitrogen 10131-027) plus 1.1 ml Hygromycin B (Invitrogen 10687-010) plus 68.75 μl Puromycin (Clontech, 631306)] at a cell density of 45.000 cells per well.
# Plates were incubated at 37° C. (5% CO2) for 20 to 23 hours. On the day of experiment medium was discarded and cells were loaded with Fluo 4 by addition of 100 μl of basic assay buffer (10 mM HEPES, 30 mM KCl, 120 mM NaCl, 0.8 mM CaCl2, 1.7 mM MgCl2, 10 mM Glucose, 0.1% BSA. pH 7.4) containing 2 μM Fluo 4 (Molecular Probes; F-14201), 0.01% pluronic acid (Molecular Probes; P-6866) and 2.5 mM probenecid (Molecular Probes; P36400). Cells were incubated in the dark at 25° C. for 60 min. Then the dye containing buffer was discarded and 100 μl basic assay buffer was added. Subsequently cells were incubated in the dark at 25° C. for 15 min. 25 μl of basic assay buffer with or without test compound were added and cells were incubated again in the dark at 25° C. for 15 min. Fluorescence intensity was measured on a FLIPR 3 instrument (Molecular Devices Corp., Sunnyvale, Calif.) with excitation at 480 nm and emission at 535 nm. After continuously reading fluorescence for 30 sec, 50 μl of basic assay buffer containing 210 mM KCl (NaCl omitted) were added for depolarization. Peak fluorescent signal intensity was determined and the amplitude of the peak signal, normalized to base line, was used to measure channel inhibition by test compounds.
# T1 sequence (Q00975 whole entry): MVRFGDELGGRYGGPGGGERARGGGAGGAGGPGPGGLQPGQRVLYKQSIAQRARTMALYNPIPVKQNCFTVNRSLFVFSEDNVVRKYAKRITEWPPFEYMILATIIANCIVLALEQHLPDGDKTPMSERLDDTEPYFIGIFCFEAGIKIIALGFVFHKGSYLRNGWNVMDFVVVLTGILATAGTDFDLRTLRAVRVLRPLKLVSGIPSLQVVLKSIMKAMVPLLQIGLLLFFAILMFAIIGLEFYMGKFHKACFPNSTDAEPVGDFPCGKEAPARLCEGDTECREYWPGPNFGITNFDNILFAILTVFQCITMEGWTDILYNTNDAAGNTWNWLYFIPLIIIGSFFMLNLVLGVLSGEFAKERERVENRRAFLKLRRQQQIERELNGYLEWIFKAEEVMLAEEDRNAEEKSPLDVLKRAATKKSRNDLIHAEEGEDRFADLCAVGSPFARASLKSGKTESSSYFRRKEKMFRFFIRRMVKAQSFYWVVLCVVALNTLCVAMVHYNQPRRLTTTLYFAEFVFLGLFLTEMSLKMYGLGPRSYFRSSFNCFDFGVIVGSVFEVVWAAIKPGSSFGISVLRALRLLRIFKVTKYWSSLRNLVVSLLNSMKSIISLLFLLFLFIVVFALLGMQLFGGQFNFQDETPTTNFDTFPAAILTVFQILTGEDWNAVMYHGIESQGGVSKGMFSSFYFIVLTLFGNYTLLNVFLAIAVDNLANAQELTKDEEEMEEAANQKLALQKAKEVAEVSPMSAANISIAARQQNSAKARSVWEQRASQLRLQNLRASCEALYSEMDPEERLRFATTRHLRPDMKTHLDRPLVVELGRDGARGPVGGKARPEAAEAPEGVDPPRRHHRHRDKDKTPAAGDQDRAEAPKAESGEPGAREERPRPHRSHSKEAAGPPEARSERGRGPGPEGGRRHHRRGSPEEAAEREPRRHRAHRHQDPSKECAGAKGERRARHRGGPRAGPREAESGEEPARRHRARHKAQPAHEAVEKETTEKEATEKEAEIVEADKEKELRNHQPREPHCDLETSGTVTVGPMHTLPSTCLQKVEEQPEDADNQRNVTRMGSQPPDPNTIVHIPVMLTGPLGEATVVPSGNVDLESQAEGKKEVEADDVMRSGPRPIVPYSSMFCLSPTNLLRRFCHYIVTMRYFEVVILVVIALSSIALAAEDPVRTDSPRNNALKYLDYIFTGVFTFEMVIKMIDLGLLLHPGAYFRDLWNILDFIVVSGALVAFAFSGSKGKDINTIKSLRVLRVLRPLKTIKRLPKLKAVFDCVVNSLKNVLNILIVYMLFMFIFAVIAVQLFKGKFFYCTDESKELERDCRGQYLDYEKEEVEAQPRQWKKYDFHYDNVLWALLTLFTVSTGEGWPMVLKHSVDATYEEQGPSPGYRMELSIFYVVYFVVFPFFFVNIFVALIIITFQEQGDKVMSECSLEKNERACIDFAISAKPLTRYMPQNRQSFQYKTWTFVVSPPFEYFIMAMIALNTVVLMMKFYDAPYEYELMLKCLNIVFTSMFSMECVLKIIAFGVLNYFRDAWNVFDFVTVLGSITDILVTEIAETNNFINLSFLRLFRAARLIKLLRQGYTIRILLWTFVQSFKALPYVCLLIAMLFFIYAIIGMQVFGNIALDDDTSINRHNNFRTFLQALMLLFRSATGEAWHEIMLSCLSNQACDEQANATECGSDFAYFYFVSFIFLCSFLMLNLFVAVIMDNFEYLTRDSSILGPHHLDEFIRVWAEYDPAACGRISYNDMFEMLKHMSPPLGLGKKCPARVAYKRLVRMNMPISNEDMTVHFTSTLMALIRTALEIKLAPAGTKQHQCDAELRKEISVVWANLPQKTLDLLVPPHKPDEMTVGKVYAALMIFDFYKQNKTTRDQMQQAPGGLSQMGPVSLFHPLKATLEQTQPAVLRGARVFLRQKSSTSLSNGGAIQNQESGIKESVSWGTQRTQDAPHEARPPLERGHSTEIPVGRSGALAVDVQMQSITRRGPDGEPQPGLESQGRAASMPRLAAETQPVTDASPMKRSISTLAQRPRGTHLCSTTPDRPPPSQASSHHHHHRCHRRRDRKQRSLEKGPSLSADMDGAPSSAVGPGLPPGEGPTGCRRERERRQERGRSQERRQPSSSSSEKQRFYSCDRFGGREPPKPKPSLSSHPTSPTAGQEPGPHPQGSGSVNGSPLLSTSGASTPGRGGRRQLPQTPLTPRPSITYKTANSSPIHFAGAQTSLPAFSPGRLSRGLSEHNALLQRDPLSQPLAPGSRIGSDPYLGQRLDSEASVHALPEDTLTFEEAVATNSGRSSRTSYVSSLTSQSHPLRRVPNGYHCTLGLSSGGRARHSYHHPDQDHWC
# T1 sequence (P54289 25-1103, further chain): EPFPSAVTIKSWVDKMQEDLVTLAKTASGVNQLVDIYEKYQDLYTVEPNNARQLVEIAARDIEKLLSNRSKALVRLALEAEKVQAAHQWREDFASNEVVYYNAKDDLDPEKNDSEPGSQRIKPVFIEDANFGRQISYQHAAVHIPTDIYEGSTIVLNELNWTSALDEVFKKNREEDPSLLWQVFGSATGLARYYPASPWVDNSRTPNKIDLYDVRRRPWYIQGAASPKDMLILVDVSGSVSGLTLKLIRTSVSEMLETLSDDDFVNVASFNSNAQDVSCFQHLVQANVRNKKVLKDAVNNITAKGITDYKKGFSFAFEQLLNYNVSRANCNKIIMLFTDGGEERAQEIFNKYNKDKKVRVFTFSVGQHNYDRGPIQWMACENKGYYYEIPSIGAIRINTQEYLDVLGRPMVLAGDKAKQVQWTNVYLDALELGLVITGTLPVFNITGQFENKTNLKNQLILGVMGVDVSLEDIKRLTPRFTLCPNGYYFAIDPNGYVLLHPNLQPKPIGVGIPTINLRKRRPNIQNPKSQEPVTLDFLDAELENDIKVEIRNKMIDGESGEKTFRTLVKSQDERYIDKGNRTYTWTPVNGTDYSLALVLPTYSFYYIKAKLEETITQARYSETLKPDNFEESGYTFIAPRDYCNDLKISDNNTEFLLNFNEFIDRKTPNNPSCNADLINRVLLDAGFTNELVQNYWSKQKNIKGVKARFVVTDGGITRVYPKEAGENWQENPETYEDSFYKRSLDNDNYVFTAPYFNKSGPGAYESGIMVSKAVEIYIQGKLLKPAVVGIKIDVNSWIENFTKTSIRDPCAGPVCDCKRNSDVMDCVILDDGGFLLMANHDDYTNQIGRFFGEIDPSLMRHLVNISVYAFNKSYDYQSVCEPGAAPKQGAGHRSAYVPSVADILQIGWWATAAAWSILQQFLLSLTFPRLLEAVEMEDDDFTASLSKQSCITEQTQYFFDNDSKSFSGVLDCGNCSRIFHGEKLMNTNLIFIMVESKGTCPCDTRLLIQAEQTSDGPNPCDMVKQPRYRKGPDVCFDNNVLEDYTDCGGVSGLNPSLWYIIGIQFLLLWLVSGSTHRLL
# T1 sequence (P54284 whole entry, further chain): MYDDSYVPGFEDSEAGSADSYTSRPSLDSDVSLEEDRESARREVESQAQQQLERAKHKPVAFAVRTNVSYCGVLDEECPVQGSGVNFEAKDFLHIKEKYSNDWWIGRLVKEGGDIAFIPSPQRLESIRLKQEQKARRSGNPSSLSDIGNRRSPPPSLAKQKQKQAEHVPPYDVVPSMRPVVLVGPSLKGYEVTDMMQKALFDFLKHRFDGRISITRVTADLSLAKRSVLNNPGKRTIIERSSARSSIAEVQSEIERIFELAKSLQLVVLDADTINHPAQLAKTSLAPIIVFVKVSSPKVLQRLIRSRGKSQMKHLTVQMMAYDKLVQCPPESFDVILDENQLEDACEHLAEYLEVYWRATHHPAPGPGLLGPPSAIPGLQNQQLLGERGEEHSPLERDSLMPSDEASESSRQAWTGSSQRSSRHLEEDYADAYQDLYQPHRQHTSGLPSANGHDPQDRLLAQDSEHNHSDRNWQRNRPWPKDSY
row,SMILES,inhibition at 3 µM
1,"Cc1c(-c2ccc(F)cc2)c(C(=O)N(C)CC(C)(C)CO)n(Cc2ccccc2)c1C(F)(F)F [SC-218, 1-Benzyl-3-(4-fluorophenyl)-N-(3-hydroxy-2,2-dimethyl-propyl)-N,4-dimethyl-5-(trifluoromethyl)-1H-pyrrole-2-carboxylic acid amide]",> 95%
2,"Cc1c(-c2ccc(Cl)cc2)c(C(=O)N2CCOCC2)n(Cc2ccccc2)c1C(F)F [SC-41, [1-Benzyl-3-(4-chlorophenyl)-5-(difluoro-methyl)-4-methyl-1H-pyrrol-2-yl]-morpholin-4-yl-methanone]",> 95%
3,"Cc1c(-c2ccc(C(F)(F)F)cc2)c(C(=O)N2CCOC(C)(C)C2)n(Cc2ccccc2)c1C(F)(F)F [SC-234, [1-Benzyl-4-methyl-5-(trifluoromethyl)-3-[4-(trifluoromethyl)-phenyl]-1H-pyrrol-2-yl]-(2,2-dimethyl-morpholin-4-yl)-methanone]",75 to 95%
4,"Cc1c(-c2ccc(Cl)cc2)c(C(=O)N(C)CC(C)(C)CN2CCOCC2)n(Cc2ccccc2)c1C(F)(F)F [SC-118, 1-Benzyl-3-(4-chlorophenyl)-N-(2,2-dimethyl-3-morpholin-4-yl-propyl)-N,4-dimethyl-5-(trifluoromethyl)-1H-pyrrole-2-carboxylic acid amide]",> 95%
5,"CN(Cc1cnc(N(C)C)nc1)C(=O)c1c(-c2ccc(Cl)cc2)cc(C(F)(F)F)n1Cc1ccccc1 [SC-216, 1-Benzyl-3-(4-chlorophenyl)-N-[(2-dimethylamino-pyrimidin-5-yl)-methyl]-N-methyl-5-(trifluoromethyl)-1H-pyrrole-2-carboxylic acid amide]",75 to 95%
6,"CN(CC(C)(CO)CO)C(=O)c1c(-c2ccc(Cl)cc2)cc(C(F)(F)F)n1Cc1ccccc1 [SC-183, 1-Benzyl-3-(4-chlorophenyl)-N-[3-hydroxy-2-(hydroxymethyl)-2-methyl-propyl]-N-methyl-5-(trifluoromethyl)-1H-pyrrole-2-carboxylic acid amide]",> 95%
7,"Cc1c(-c2ccc(Cl)c(F)c2)c(C(=O)N2CCOCC2)n(Cc2ccccc2)c1C(F)(F)F [SC-103, [1-Benzyl-3-(4-chloro-3-fluoro-phenyl)-4-methyl-5-(trifluoromethyl)-1H-pyrrol-2-yl]-morpholin-4-yl-methanone]",75 to 95%
8,"CN(Cc1nccn1C)C(=O)c1c(-c2ccc(Cl)cc2)cc(C(F)(F)F)n1Cc1ccccc1 [SC-212, 1-Benzyl-3-(4-chlorophenyl)-N-methyl-N-[(1-methyl-1H-imidazol-2-yl)-methyl]-5-(trifluoromethyl)-1H-pyrrole-2-carboxylic acid amide]",> 95%
9,"Cc1c(-c2ccc(Cl)c(F)c2)c(C(=O)N2CC(O)C2)n(Cc2ccccc2)c1C(F)(F)F [SC-247, [1-Benzyl-3-(4-chloro-3-fluoro-phenyl)-4-methyl-5-(trifluoromethyl)-1H-pyrrol-2-yl]-(3-hydroxy-azetidin-1-yl)-methanone]",40 to 75%
10,"Cc1c(-c2ccc(Cl)cc2F)c(C(=O)N(C)CCC2CCCO2)n(Cc2ccccc2)c1C(F)(F)F (stereo not shown) [SC-164, 1-Benzyl-3-(4-chloro-2-fluoro-phenyl)-N,4-dimethyl-N-(2-tetrahydro-furan-2-yl-ethyl)-5-(trifluoromethyl)-1H-pyrrole-2-carboxylic acid amide]",> 95%
11,"CC1(C)CN(C(=O)c2c(-c3ccc(Cl)cc3)cc(C(F)(F)F)n2Cc2ccccc2)CCO1 [SC-75, [1-Benzyl-3-(4-chlorophenyl)-5-(trifluoromethyl)-1H-pyrrol-2-yl]-(2,2-dimethyl-morpholin-4-yl)-methanone]",75 to 95%
12,"Cc1c(-c2ccc(C(F)(F)F)cc2)c(C(=O)N(C)CCS(C)(=O)=O)n(Cc2ccccc2)c1C(F)(F)F [SC-228, 1-Benzyl-N,4-dimethyl-N-(2-methylsulfonyl-ethyl)-5-(trifluoromethyl)-3-[4-(trifluoromethyl)-phenyl]-1H-pyrrole-2-carboxylic acid amide]",75 to 95%
13,"Cc1c(-c2ccc(Cl)cc2)c(C(=O)N(C)CC2CCC[C@H]2O)n(Cc2ccccc2)c1C(F)(F)F (stereo partly drawn) [SC-136, 1-Benzyl-3-(4-chlorophenyl)-N-[[(2R)-2-hydroxy-cyclopentyl]-methyl]-N,4-dimethyl-5-(trifluoromethyl)-1H-pyrrole-2-carboxylic acid amide]",> 95%
14,"Cc1c(-c2ccc(Cl)c(F)c2)c(C(=O)N(C)C2CC2)n(Cc2ccccc2)c1C(F)(F)F [SC-246, 1-Benzyl-3-(4-chloro-3-fluoro-phenyl)-N-cyclopropyl-N,4-dimethyl-5-(trifluoromethyl)-1H-pyrrole-2-carboxylic acid amide]",75 to 95%
15,"Cc1c(-c2ccc(C(F)(F)F)cc2)c(C(=O)N(C)C2CCOCC2)n(Cc2ccccc2)c1C(F)(F)F [SC-229, 1-Benzyl-N,4-dimethyl-N-tetrahydro-pyran-4-yl-5-(trifluoromethyl)-3-[4-(trifluoromethyl)-phenyl]-1H-pyrrole-2-carboxylic acid amide]",75 to 95%
16,"Cc1c(-c2ccc(Cl)cc2)c(C(=O)N(C)C)n(Cc2ccccc2)c1C(F)(F)F [SC-18, 1-Benzyl-3-(4-chlorophenyl)-N,N,4-trimethyl-5-(trifluoromethyl)-1H-pyrrole-2-carboxylic acid amide]",75 to 95%
17,"CN(CC(C)(C)C)C(=O)c1c(-c2ccc(Cl)cc2)c(C2CC2)c(C(F)(F)F)n1Cc1ccccc1 [SC-120, 1-Benzyl-3-(4-chlorophenyl)-4-cyclopropyl-N-(2,2-dimethyl-propyl)-N-methyl-5-(trifluoromethyl)-1H-pyrrole-2-carboxylic acid amide]",75 to 95%
18,"Cc1c(-c2ccc(Cl)cc2F)c(C(=O)N2CCOC(C)(C)C2)n(Cc2ccccc2)c1C(F)(F)F [SC-155, [1-Benzyl-3-(4-chloro-2-fluoro-phenyl)-4-methyl-5-(trifluoromethyl)-1H-pyrrol-2-yl]-(2,2-dimethyl-morpholin-4-yl)-methanone]",> 95%
19,"Cc1c(-c2ccc(OC(F)(F)F)cc2)c(C(=O)N2CC(F)(F)C2)n(Cc2ccccc2)c1C(F)(F)F [SC-97, [1-Benzyl-4-methyl-5-(trifluoromethyl)-3-[4-(trifluoromethyloxy)-phenyl]-1H-pyrrol-2-yl]-(3,3-difluoro-azetidin-1-yl)-methanone]",40 to 75%
20,"Cc1c(-c2ccc(F)cc2)c(C(=O)N2CCOCC2)n(Cc2ccccc2)c1C(F)(F)F [SC-101, [1-Benzyl-3-(4-fluorophenyl)-4-methyl-5-(trifluoromethyl)-1H-pyrrol-2-yl]-morpholin-4-yl-methanone]",> 95%
21,"Cc1c(-c2ccc(Cl)cc2)c(C(=O)N(C)CC(C)(C)CO)n(Cc2ccccc2)c1C(F)(F)F [SC-106, 1-Benzyl-3-(4-chlorophenyl)-N-(3-hydroxy-2,2-dimethyl-propyl)-N,4-dimethyl-5-(trifluoromethyl)-1H-pyrrole-2-carboxylic acid amide]",> 95%
22,"Cc1c(-c2ccc(Cl)cc2)c(C(=O)N2CCNC(=O)C2)n(Cc2ccccc2)c1C(F)(F)F [SC-08, 4-[1-Benzyl-3-(4-chlorophenyl)-4-methyl-5-(trifluoromethyl)-1H-pyrrole-2-carbonyl]-piperazin-2-one]",75 to 95%
23,"CN(C(=O)c1c(-c2ccc(Cl)cc2)cc(C(F)(F)F)n1Cc1ccccc1)C1CCOCC1 [SC-73, 1-Benzyl-3-(4-chlorophenyl)-N-methyl-N-tetrahydro-pyran-4-yl-5-(trifluoromethyl)-1H-pyrrole-2-carboxylic acid amide]",> 95%
24,"CCOC(=O)C1(N(C)C(=O)c2c(-c3ccc(Cl)cc3)c(C)c(C(F)(F)F)n2Cc2ccccc2)CC1 [SC-52, 1[[1-Benzyl-3-(4-chlorophenyl)-4-methyl-5-(trifluoromethyl)-1H-pyrrole-2-carbonyl]-methyl-amino]-cyclopropane-1-carboxylic acid ethyl ester]",> 95%
25,"Cc1c(-c2ccc(Cl)cc2)c(C(=O)NC(C)C)n(Cc2ccccc2)c1C(F)(F)F [SC-150, 1-Benzyl-3-(4-chlorophenyl)-N-isopropyl-4-methyl-5-(trifluoromethyl)-1H-pyrrole-2-carboxylic acid amide]",75 to 95%
